Test: Human HepG2 cell viability assay in 384 well format
Assay type: toxicity, cell-based
Parameters: dose 125 nL, time 70.5 hour; concentration not given beside the values
Conditions: HepG2 cells, read-out: Inhibition

SMILES	cytotoxicity at 70.5 h [%]
CC(C)(C)NC(=O)c1ccc(COCC(F)(F)F)o1	-4.89
CCn1nnc(NCc2ccccc2OCc2ccc(Cl)cc2)n1	-7.27
CC(=O)Nc1ccccc1Sc1nc(Br)nn1C	-4.88
CC(=O)Nc1c(C)noc1/C=C\c1ccc(C)c(S(=O)(=O)NC2CC2)c1	-6.84
CN1C(=N)NC(=O)/C1=C\c1ccc(-c2ccc(F)cc2)o1	28.8
CCCOC(=O)c1ccc(-c2ccc(/C=C3\C(=O)NC(=N)N3C)o2)cc1	18.1
COCCNC(=O)c1ccc2c(=O)n3c(nc2c1)CCCCC3	-22.9
Cc1ccc(Nc2cc(N3CCN(S(C)(=O)=O)CC3)nc(C)n2)cc1	-17.3
COCCCNC(=O)Cn1c(C)cc(=O)n2nc(-c3cccs3)nc12	-7.89
COc1cccc(N2CCN(C(=O)c3noc4c3CCCC4)CC2)c1	-20.2
O=C(NCc1ccco1)c1cccc(C(=O)NCc2ccco2)n1	-20.3
Cc1ccc(S(=O)(=O)n2ccn(C(=O)CC(C)C)c2=O)cc1	-19.3
CCC(CC)C(=O)n1ccn(S(=O)(=O)c2ccc(C)cc2)c1=O	15.1
CCc1nc(-c2ccc(C(=O)N3CCC4(CC3)OCCO4)cc2)no1	-21.2
CCc1nc(-c2ccc(NC(=O)N3CCCC3)cc2)no1	-19.3
CCc1nc(-c2ccc(NC(=O)N3CCOCC3)cc2)no1	-3.86
O=C(Nc1ccc(Br)cc1F)c1cc(CN2CCOCC2)on1	-5.21
CCOC(=O)CNC(=O)NCc1cccn1Cc1ccccc1	-13.4
CCOC(=O)CNC(=O)NCc1cccn1Cc1cccc(C)c1	-18.9
COCCCNC(=O)NCc1cccn1Cc1ccccc1C	-20.3
CCCN1CCN(C(=O)CCn2cccc2)CC1	-5.28
O=C(NCCCc1ccco1)c1cnc(N2CCOCC2)nc1	-18.7
CC(=O)N1N=C(COc2ccc(Cl)cc2)OC1c1ccccc1 (configuration not stated)	17
COCCn1c(-c2cccc(OC)c2)cnc1NC(=O)NC1CCCC1	6.84

SMILES	cytotoxicity at 70.5 h [%]
COCCn1c(-c2cccc(OC)c2)cnc1NC(=O)NCCC(C)C	-12.5
CCOc1ccc(C(=O)Nc2c(C)nc3ccc(Cl)cn3c2=O)cc1	-3.81
COc1ccc(C(=O)Nc2c(C)nc3cccc(C)n3c2=O)cc1	-17.1
CN1CC=C(c2noc(CCC(=O)N3CCCC3)n2)CC1	7.74
CN1CC=C(c2noc(CCC(=O)N3CCOCC3)n2)CC1	-5.23
Cc1noc2ncnc(N(C)Cc3ccco3)c12	-16.7
COc1cnc(CSc2nnc(C)s2)cc1OCC(=O)NC1CCCC1	2.36
Cc1ccc2oc(SCC(=O)NC(C)(C)C)nc2n1	-6.39
CC(c1ccncc1)N(CCN(C)C)C(=O)Nc1ccc(Cl)cc1 (configuration not stated)	-14.7
Cc1n[nH]c2c1C(c1ccc(Cl)cc1)SCC(=O)N2 (configuration not stated)	10.6
Cc1n[nH]c2c1C(c1ccc(Br)cc1)SCC(=O)N2 (configuration not stated)	-8.1
Cc1n[nH]c2c1C(c1ccc(O)cc1)SCC(=O)N2 (configuration not stated)	-11
COc1ccc(CN2CCCC2c2cccc(F)c2)c(OC)c1OC (configuration not stated)	-6.93
COc1cc(CN2CCCC2c2cccc(F)c2)cc(OC)c1OC (configuration not stated)	-11.4
COc1ccc(NC(=O)N2CCCC2c2ccco2)c(OC)c1 (configuration not stated)	10.8
COc1ccc(Cl)cc1NCc1nc2[nH]c(C)c(C)c(=O)n2n1	-4.46
Cc1[nH]c2nc(CNc3cccc(Cl)c3)nn2c(=O)c1C	-11.7
O=C(NC(c1ccccc1)c1cccnc1)C1CC1 (configuration not stated)	-6.82
Cc1c(Cl)cccc1S(=O)(=O)N1C[C@@H]2CC[C@H](C1)N(C)C2=O	1.2
CCCc1nc(C(=O)NC(COC)c2ccnn2C)cs1 (configuration not stated)	-10.8
CC(=O)N1CCc2c(nc(N(C)C)nc2NCCCn2ccnc2C)C1	-4.2
Nc1nnc(CCCNC(=O)c2ccc(C3CCCNC3)cc2)s1 (configuration not stated)	8.02
O=C1Nc2ccccc2C12CCCN(Cc1ccc3c(c1)OCCO3)C2 (configuration not stated)	-11.8
CCn1c(C)nnc1SCCNC(=O)c1sc(C(C)C)nc1C	-7.2

SMILES	cytotoxicity at 70.5 h [%]
CC(C)OC(=O)N1C[C@H]2CC[C@@H]1CN(C(=O)c1ccccc1)C2	-2.95
COCC1(C(=O)N[C@H]2CN(c3ccnc(C)c3)C[C@@H]2C2CC2)CCC1	-8.46
COC(=O)CCC(=O)NCc1cccnc1N1CCc2ccccc2C1	3.31
CN1CCC(CNC(=O)c2cccc(CN3CCCCCC3)c2)C1 (configuration not stated)	-5.88
CCNc1ncc(-c2cc(-c3ccn(C)c3)nc(N)c2C#N)cn1	-11.6
COCCn1ccnc1CN1CCc2[nH]cnc2C1c1cccc(O)c1 (configuration not stated)	-14.3
CCCc1nnc(N2CCN(c3cccc(C)c3C)CC2)o1	-14.8
Cc1cncc(C2CCCN(C(=O)c3cccn3C)C2)n1 (configuration not stated)	-5.17
NC[C@H]1CC[C@H](C(NC(=O)c2ccccn2)c2ccccn2)CC1 (some centres not stated)	-4.69
Cc1ccn(CCC(=O)N2CCOC(c3nc(-c4cccs4)no3)C2)n1 (configuration not stated)	-2.76
O=C(c1cnco1)N1CCCC(Cc2nccs2)C1 (configuration not stated)	-7.07
C[C@]1(O)CCN(Cc2cncs2)C[C@@H]1Oc1cccc(F)c1	-0.0777
CCc1nccn1-c1cncc(C2CCCN2Cc2ccc(F)cc2)n1 (configuration not stated)	36.1
CC1CCCCN1Cc1ccc(-c2ccccc2C(=O)O)cc1 (configuration not stated)	0.911
COc1ncc(CN2CC[C@@](C)(O)[C@H](Oc3cccc(F)c3)C2)cn1	5.46
Cc1nc(CN2CCCC(NCc3ccc4c(c3)CCO4)C2)no1 (configuration not stated)	14.2
Cc1nc(C)n(C2CCCN(C(=O)CCOCC(C)C)C2)n1 (configuration not stated)	11
Cc1nc(CN2CCCC(NCc3ccc4ccccc4c3)C2)no1 (configuration not stated)	-6.48
CCc1nc(C2CCCN2CC(=O)Nc2cc(C)no2)no1 (configuration not stated)	-5.2
Cc1n[nH]c(C)c1NC(=O)CN1CCCC1c1noc(C2CC2)n1 (configuration not stated)	-18.5
Cc1nc(C)n(C2CCCN(C(=O)CCCc3ccccn3)C2)n1 (configuration not stated)	-7.71
Cc1cc(CN2CCCC2c2noc(C(C)C)n2)on1 (configuration not stated)	-15.4
CC(C)c1nc(C2CCCN2Cc2ccon2)no1 (configuration not stated)	-10.9
CCc1nc(C2CCCN2CC(=O)Nc2cc(C)on2)no1 (configuration not stated)	-6.96

SMILES	cytotoxicity at 70.5 h [%]
CCc1nc(C2CCCN2Cc2ccno2)no1 (configuration not stated)	-14.3
Cc1cccc(C(=O)NCc2ccccc2)n1	-15.5
Cc1noc(C(C)C)c1C(=O)NCc1cccnc1	-16.6
CNS(=O)(=O)Cc1ccc(CNC(=O)c2ccccn2)cc1	-9.74
CCNC(=O)C1CCN(Cn2nc(-c3ccc(F)cc3)oc2=O)CC1	-13.2
Cc1noc(C(C)C)c1C(=O)NCc1ccc2c(c1)OCCO2	-5.36
Cc1cccc(-c2nc(C)nn2CC(=O)NC(C)C2CC2)c1 (configuration not stated)	-5.76
Cc1nc(-c2ccccc2)n(CC(=O)NC2CCCC2)n1	-13.6
Cc1nc(CN2CCCC(NCc3cnn(C)c3)C2)no1 (configuration not stated)	-8.69
CC1CN(C)CCN1C(=O)c1ccn(-c2cccc(F)c2)n1 (configuration not stated)	-15.8
Cc1nc(CN2CCCC(NCc3nc4ccccc4s3)C2)no1 (configuration not stated)	-17.4
CC1CN(C)CCN1C(=O)c1ccn(-c2ccc(F)cc2)n1 (configuration not stated)	-12.3
Cc1cc(CN2CCN(c3ccc4nncn4n3)CC2)no1	-11.5
Cc1nc(CN2CCCC(NCc3sccc3C)C2)no1 (configuration not stated)	-2.7
CN1CCN(C2CCN(CCCOc3ccc(F)cc3)CC2)C1=O	19.6
CN1CCN(C2CCN(CCOc3ccccc3)CC2)C1=O	-14.7
COc1c(C2CCCN2C(=O)c2csc(C3CC3)n2)c(C)nn1C (configuration not stated)	15.2
CC(C)c1noc(CN2CCCC2c2noc(C(C)C)n2)n1 (configuration not stated)	-9.32
COc1ccc(CNC(C)Cn2cccn2)cc1OC (configuration not stated)	1.53
CCN1N=C(C(=O)N2CCCC(c3nc(C)c(C)s3)C2)CCC1=O (configuration not stated)	-0.596
c1cnn(CC2CCCN2Cc2nc(C3CC3)no2)c1 (configuration not stated)	-8.97
CC(C)(C)c1nc(CN2CCCC2Cn2cncn2)no1 (configuration not stated)	-5.99
CCOc1ccccc1OC1CCN(Cc2ccn(C)c(=O)c2)CC1	20.3
Fc1ccc(Oc2ccc(CNCC3CNc4ccnn4C3)cn2)cc1 (configuration not stated)	-12.4

SMILES	cytotoxicity at 70.5 h [%]
CCc1csc(C2CCCN(C(=O)c3cnc[nH]3)C2)n1 (configuration not stated)	-7.63
COc1cc(CNC(C)Cn2cccn2)cc(OC)c1 (configuration not stated)	-9.25
c1ccc(Cc2noc(CN3CCCCC3Cn3cccn3)n2)cc1 (configuration not stated)	-9.87
CC1CCCN(CCNC(=O)c2ccn(-c3ccc(F)cc3)n2)C1 (configuration not stated)	-0.389
Cc1cccc(C)c1OC1CCN(Cc2ccn(C)c(=O)c2)CC1	-5.76
COc1ccc(CNCC2CNc3ccnn3C2)cn1 (configuration not stated)	-3.27
CC(C)C(NC(=O)NCCNc1cnccn1)c1cccs1 (configuration not stated)	-11.6
Cc1nc(-c2ccccc2)sc1CNC1CCc2ncnn2C1 (configuration not stated)	-10.6
Fc1ccc(-c2nc(CNC3CCc4ncnn4C3)co2)cc1 (configuration not stated)	-4.87
Cc1cc(CNC(=O)NCc2cccs2)no1	-5.03
CCc1csc(C2CCCN(C(=O)c3cc(C4CC4)[nH]n3)C2)n1 (configuration not stated)	-7.48
CC(C)c1nc(CN2CCCCC2Cn2cncn2)cs1 (configuration not stated)	16.2
CN(Cc1cscn1)C1CCCN(c2cccnn2)C1 (configuration not stated)	18
CCc1nc(CN(C)C2CCCN(c3cccnn3)C2)no1 (configuration not stated)	16.7
CCc1nnc(CN2CCCCC2Cn2nc(C)nc2C)o1 (configuration not stated)	-5.83
CC(C)C(Sc1nnnn1C1CC1)C(=O)NCc1ccccc1 (configuration not stated)	-7.04
Cc1ccc(-c2noc(CN3CCC(N4CCNC4=O)CC3)n2)cc1	20.8
Cc1cc(C)n(CC2CN(CC(=O)Nc3ccncc3)CCO2)n1 (configuration not stated)	-2.52
Cc1cc(C)n(CC2CN(CC(=O)NC3CCOCC3)CCO2)n1 (configuration not stated)	15.9
COc1ncc(C2(O)CCN(Cc3cccs3)CC2)c(OC)n1	-8.54
CC(C)OCCCN(CC(=O)N1CCNCC1)C(=O)c1cccc(Cl)c1	-18.5
